According to article PMC6920857, “Novel Series of Methyl 3-(Substituted Benzoyl)-7-Substituted-2-Phenylindolizine-1-Carboxylates as Promising Anti-Inflammatory Agents: Molecular Modeling Studies” (Biomolecules, 2019):

Experiments:
[1] = target: T1, human recombinant COX-2 enzyme (Homo sapiens, UniProt P35354); assay: In vitro COX-2 inhibition assay
T1 sequence (P35354 18-604): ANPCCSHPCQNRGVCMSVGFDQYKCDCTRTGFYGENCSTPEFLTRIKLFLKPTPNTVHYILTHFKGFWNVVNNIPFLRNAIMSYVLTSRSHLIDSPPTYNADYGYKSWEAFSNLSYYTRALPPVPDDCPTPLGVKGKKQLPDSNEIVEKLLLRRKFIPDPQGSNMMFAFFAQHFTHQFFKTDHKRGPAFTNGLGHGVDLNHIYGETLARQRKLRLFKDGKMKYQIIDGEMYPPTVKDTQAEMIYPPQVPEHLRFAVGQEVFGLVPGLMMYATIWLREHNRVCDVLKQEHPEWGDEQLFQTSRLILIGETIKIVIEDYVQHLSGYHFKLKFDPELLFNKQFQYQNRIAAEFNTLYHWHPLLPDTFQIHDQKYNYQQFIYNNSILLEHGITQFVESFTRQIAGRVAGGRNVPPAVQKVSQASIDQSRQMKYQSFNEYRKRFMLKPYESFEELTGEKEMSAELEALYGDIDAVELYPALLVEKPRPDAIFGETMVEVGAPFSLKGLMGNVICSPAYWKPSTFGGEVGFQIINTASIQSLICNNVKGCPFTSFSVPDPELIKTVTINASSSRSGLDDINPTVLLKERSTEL

| SMILES | melting point [°C] | IC50 [1] [µM] |
| --- | --- | --- |
| COC(=O)c1c(-c2ccccc2)c(C(=O)c2ccc(Br)cc2)n2ccc(C)cc12 [Compound 4d, Methyl 3-(4-Bromobenzoyl)-7-Methyl-2-Phenylindolizine-1-Carboxylate] | 137 to 138 | 37.66 ± 0.03 |
| COC(=O)c1c(-c2ccccc2)c(C(=O)c2ccccc2)n2ccc(C)cc12 [Compound 4a, Methyl 3-Benzoyl-7-Methyl-2-Phenylindolizine-1-Carboxylate] | 173 to 174 | 41.59 ± 0.03 |
| COC(=O)c1c(-c2ccccc2)c(C(=O)c2ccc(F)cc2)n2ccc(C)cc12 [Compound 4b, Methyl 3-(4-Fluorobenzoyl)-7-Methyl-2-Phenylindolizine-1-Carboxylate] | 167 to 168 | 27.08 ± 0.03 |
| COC(=O)c1c(-c2ccccc2)c(C(=O)c2ccc(Cl)cc2)n2ccc(C)cc12 [Compound 4c, Methyl 3-(4-Chlorobenzoyl)-7-Methyl-2-Phenylindolizine-1-Carboxylate] | 154 to 155 | 38.11 ± 0.03 |
| COC(=O)c1c(-c2ccccc2)c(C(=O)c2ccc(Br)cc2)n2ccc(C#N)cc12 [Compound 4f, Methyl 3-(4-Bromobenzoyl)-7-Cyano-2-Phenylindolizine-1-Carboxylate] | 208 to 209 | 13.55 ± 0.03 |
| COC(=O)c1c(-c2ccccc2)c(C(=O)c2ccc(C#N)cc2)n2ccc(C#N)cc12 [Compound 4e, Methyl 7-Cyano-3-(4-Cyanobenzoyl)-2-Phenylindolizine-1-Carboxylate] | 235 to 236 | 6.71 ± 0.03 |
| COC(=O)c1c(-c2ccccc2)c(C(=O)c2ccc(OC)cc2)n2ccc(C#N)cc12 [Compound 4g, Methyl 7-Cyano-3-(4-Methoxybenzoyl)-2-Phenylindolizine-1-Carboxylate] | 166 to 167 | 9.62 ± 0.03 |
